Columns and labels:
[1] = tested on: intracellular Ca2+ (LRP1 / NMDA receptor) in RGC; assay: Intracellular Ca2+ increase in RGC after glutamate+glycine (Fluo-8 fluorescence); format: cell-based, rat; details: E-LP 100 ng protein/mL, 15 minutes before 300 μM glutamate+10 μM glycine
Protocol: The inflow of calcium into RGC was confirmed in the manner as described below. Specifically, RGC was incubated on a microdish at least for 14 days, followed by incubation at 37° C. for 30 minutes using 3 μM Fluo-8 acetoxymethyl ester (AAT Bioquest, Sunnyvale, Calif.). The resulting cells were washed twice with 500 μl of the above HBSS, and 300 μM glutamate and 10 μM glycine were poured. The fluorescence images were taken at every 500 msec by ORCA-R2 digital camera (Hamamatsu Photonics, Hamamatsu, Japan) and analyzed by MetaFluor fluorescence ratio imaging software (Molecular Devices, Sunnyvale, Calif.).
RGC was labeled with Fluo-8 acetoxymethyl ester for 30 minutes, and Glu (300 μM glutamate+10 μM glycine) was added thereto. Fluorescent ratio images were as represented by colors indicated by the color index shown at the lower side of FIG. 12A. The color was represented as Ratio 0 and Ratio 2 corresponding to the base fluorescent intensity (Ratio 1) before Glu stimulation. The panels on the left and right sides indicate Glu and Glu+E-LP, respectively. […] The scale bar is 80 μm.
FIGS. 12B and C show variations of fFuo-8 fluorescence represented by ΔF/F0. In the figures, F0 indicates the base fluorescence intensity before Glu stimulation. * and **: p<0.005 and p<0.0001 (Glu vs. Glu+E-LP). […]

[2] = tested on: glycogen synthase kinase 3β (GSK3β); assay: GSK3β phosphorylation level in RGC after glutamic acid treatment (Western blotting); format: cell-based, rat; details: cells collected 18 hours after treatment with glutamic acid
Protocol: The apoptosis-like cells were computed by the nucleus staining with Hoechst 33342. […] The retinal glia cells were collected in 18 hours after treatment with glutamic acid, followed by Western blotting in which a rabbit anti-phosphorylated GSK3β (p-GSK3β) antibody and a rabbit anti-GSK3β antibody were used.
The immune blotting used in the above example was carried out in a manner as will be described below. Specifically, the lipoprotein obtained in each of the above examples was dissolved in 62.5 mM Tris-HCl (pH 6.8), 10% glycerol, 2% sodium dodecyl sulfate (SDS) and 5% β-mercaptoethanol (a sample buffer), and the resulting mixture was boiled for 5 minutes. The resulting protein was separated by electrophoresis using 0.1% SDS-containing polyacrylamide gel and then transferred to a polyvinylidene difluoride membrane. […]

Row | Substance | increase in intracellular Ca2+ [1] | phosphorylation level of GSK3β [2]
1 | E-LP: reconstituted lipoprotein of 1-palmitoyl-2-oleyl-glycerophosphocoline, cholesterol and recombinant human apolipoprotein E, molar ratio 100:10:1 or 100:0:1 | inhibits | –
2 | LP: reconstituted lipoprotein of POPC, cholesterol and recombinant human apolipoprotein E3 | – | recovery

Reference: patent publication US20140228299A1, “PROPHYLACTIC AND THERAPEUTIC AGENT FOR NEUROLOGICAL DISEASES USING LIPOPROTEINS AND PROPHYLACTIC AND THERAPEUTIC METHOD FOR NEUROLOGICAL DISEASES” (National University Corporation Tokyo Medical and Dental …, priority 2011, published 2014)
